Results as given in ChEMBL document CHEMBL5244219, “Recent developments of quinolone-based derivatives and their activities against Escherichia coli” (Eur J Med Chem, 2018).
Converted amounts (≈) assume the structure as drawn. One block for each molecule: values may come before it.

Tests used:
Format in all cases: functional
Escherichia coli [1] = test: Antibacterial activity against Escherichia coli NCTC 10418 assessed as bacterial growth inhibition incubated for 18 to 20 hrs by agar dilution method; conditions: time 18-20 hrs
Escherichia coli [2] = test: Antibacterial activity against Escherichia coli assessed as zone of inhibition at 500 to 1000 ug per disc; conditions: dose 500-1000 µg
Escherichia coli [3] = test: Antibacterial activity against Escherichia coli assessed as bacterial growth inhibition measured after 24 hrs by broth micro dilution method
Escherichia coli [4] = test: Antibacterial activity against Escherichia coli assessed as bacterial growth inhibition by microdilution method
Escherichia coli [5] = test: Antibacterial activity against Escherichia coli assessed as bacterial growth inhibition incubated for 18 to 20 hrs by agar dilution method; conditions: time 18-20 hrs
Escherichia coli [6] = test: Antibacterial activity against Escherichia coli MTCC 739 assessed as bacterial growth inhibition incubated for 24 hrs by spectrophotometric method
Escherichia coli [7] = test: Antibacterial activity against Escherichia coli assessed as bacterial growth inhibition incubated for 16 to 24 hrs by absorbance analysis; conditions: time 16-24 hrs
Escherichia coli [8] = test: Antibacterial activity against Escherichia coli ATCC 8739 assessed as bacterial growth inhibition incubated for 24 hrs by two-serial dilution method
Escherichia coli [9] = test: Antibacterial activity against Escherichia coli NIHJ JC-2 assessed as bacterial growth inhibition measured after 24 hrs by agar dilution method
Escherichia coli [10] = test: Antibacterial activity against Escherichia coli NIHJ assessed as bacterial growth inhibition measured after 24 hrs by agar dilution method
Escherichia coli [11] = test: Antibacterial activity against Escherichia coli 2010-05 assessed as bacterial growth inhibition measured after 24 hrs by agar dilution method
Escherichia coli [12] = test: Antibacterial activity against Escherichia coli 2010-29 assessed as bacterial growth inhibition measured after 24 hrs by agar dilution method
Escherichia coli [13] = test: Antibacterial activity against Escherichia coli KC-14 infected in po dosed mouse assessed as bacterial growth inhibition; conditions: Escherichia coli, KC-14, read-out: ED50

MIC (Escherichia coli [3]): > 6.25 µg/mL
Structure (SMILES): CCn1cc(C(=O)O)c(=O)c2cc(F)c(-n3cc(CO[C@H]4OC[C@@H](OC(C)=O)[C@@H](OC(C)=O)[C@H]4OC(C)=O)nn3)c(F)c21

MIC (Escherichia coli [4]): ≥ 0.5 µg/mL
Structure (SMILES): CC(=O)NC[C@H]1CN(c2ccc(NC3CN(c4nc5c(cc4F)c(=O)c(C(=O)O)cn5C4CC4)C3)c(F)c2)C(=O)O1

MIC (Escherichia coli [4]): ≥ 0.5 µg/mL
Structure (SMILES): CC(=O)NC[C@H]1CN(c2ccc(N[C@@H]3CCN(c4cc5c(cc4F)c(=O)c(C(=O)O)cn5C4CC4)C3)c(F)c2)C(=O)O1

MIC (Escherichia coli [5]): 0.02 µg/mL (≈ 0.0248 µM)
Structure (SMILES): COc1cc(Cc2cnc(/N=C3\C(=O)N(CN4CCN(c5c(F)cc6c(=O)c(C(=O)O)cn(C7CC7)c6c5OC)CC4C)c4ccccc43)nc2N)cc(OC)c1OC (centres undefined)

MIC (Escherichia coli [6]): 25 µg/mL (≈ 47 µM)
Structure (SMILES): Cn1c(=O)cc(OCc2nn(CN3CCN(c4ccc(C(F)(F)F)cc4)CC3)c(=S)o2)c2ccccc21

MIC (Escherichia coli [4]): ≥ 0.5 µg/mL
Structure (SMILES): CC(=O)NC[C@H]1CN(c2ccc(N3CCN(c4nc5c(cc4F)c(=O)c(C(=O)O)cn5C4CC4)CC3)c(F)c2)C(=O)O1

MIC (Escherichia coli [5]): 0.305 µg/mL (≈ 0.39 µM)
Structure (SMILES): CCn1cc(C(=O)O)c(=O)c2cc(F)c(N3CCN(CN4C(=O)/C(=N\c5ncc(Cc6cc(OC)c(OC)c(OC)c6)c(N)n5)c5ccccc54)C(C)C3)c(F)c21 (centres undefined)

MIC (Escherichia coli [8]): > 3 µg/mL
Structure (SMILES): O=C(O)c1cn(C2CC2)c2c(cc(F)c3nc(-c4ccsc4)[nH]c32)c1=O

MIC (Escherichia coli [3]): > 6.25 µg/mL
Structure (SMILES): CCn1cc(C(=O)O)c(=O)c2cc(F)c(-n3cc(CO[C@H]4O[C@H](COC(C)=O)[C@@H](OC(C)=O)[C@H](OC(C)=O)[C@@H]4OC(C)=O)nn3)c(F)c21

MIC (Escherichia coli [5]): 0.02 µg/mL (≈ 0.0569 µM)
Structure (SMILES): CCn1cc(C(=O)O)c(=O)c2cc(F)c(N3CCNC(C)C3)c(F)c21 (centres undefined) [LOMEFLOXACIN]

MIC (Escherichia coli [3]): > 6.25 µg/mL
Structure (SMILES): CCn1cc(C(=O)O)c(=O)c2cc(F)c(-n3cc(CO[C@H]4O[C@H](COC(C)=O)[C@@H](OC(C)=O)[C@H](OC(C)=O)[C@H]4OC(C)=O)nn3)c(F)c21

Continued, molecule first:

Structure (SMILES): CCn1cc(C(=O)O)c(=O)c2cc(F)c(N3CCN(CN4C(=O)/C(=N/NC(N)=S)c5ccccc54)CC3)cc21
MIC (Escherichia coli [1]): ≤ 0.018 µg/mL

Structure (SMILES): Cn1c(=O)c(C(=O)/C=C/c2ccco2)c(O)c2ccccc21
diameter of the inhibition zone (DIZ) (Escherichia coli [2]): 7 mm

Structure (SMILES): Cn1c(=O)cc(OCc2nn(CN3CCN(c4ccc(C(F)(F)F)cc4)CC3)c(=S)s2)c2ccccc21
MIC (Escherichia coli [6]): 25 µg/mL (≈ 45.7 µM)

Structure (SMILES): Cc1[nH]c2ccc([N+](=O)[O-])cc2c(=O)c1CC(=O)O
MIC (Escherichia coli [7]): 8.97 µg/mL (≈ 34.2 µM)

Structure (SMILES): O=C(O)c1cn(C2CC2)c2c(cc(F)c3nc(-c4ccoc4)[nH]c32)c1=O
MIC (Escherichia coli [8]): > 3 µg/mL

Structure (SMILES): Cc1[nH]c2c(C)cc([N+](=O)[O-])cc2c(=O)c1CC(=O)O
MIC (Escherichia coli [7]): 8.97 µg/mL (≈ 32.5 µM)

Structure (SMILES): CCn1cc(C(=O)O)c(=O)c2cc(F)c(-n3cc(CO[C@H]4OC[C@@H](OC(C)=O)[C@H](OC(C)=O)[C@H]4OC(C)=O)nn3)c(F)c21
MIC (Escherichia coli [3]): > 6.25 µg/mL

Structure (SMILES): CCn1cc(C(=O)O)c(=O)c2cc(F)c(N3CCN(CN4C(=O)/C(=N/NC(N)=S)c5cc(Br)ccc54)CC3)cc21
MIC (Escherichia coli [1]): ≤ 0.018 µg/mL

Structure (SMILES): CC(=O)NC[C@H]1CN(c2ccc(N3CCN(c4cc5c(cc4F)c(=O)c(C(=O)O)cn5C4CC4)CC3)c(F)c2)C(=O)O1
MIC (Escherichia coli [4]): ≥ 0.5 µg/mL

Structure (SMILES): CCn1c(=O)c(C(=O)/C=C/c2cccs2)c(O)c2ccccc21
diameter of the inhibition zone (DIZ) (Escherichia coli [2]): 7 mm

Structure (SMILES): CC1(N)CN(c2c(F)cc3c(=O)c(C(=O)O)cn(-c4cc(N)c(F)cc4CO)c3c2Cl)C1
MIC (Escherichia coli [9]): 0.008 µg/mL (≈ 0.0172 µM)
MIC (Escherichia coli [10]): 0.008 µg/mL (≈ 0.0172 µM)
MIC (Escherichia coli [11]): 1 µg/mL (≈ 2.15 µM)
MIC (Escherichia coli [12]): 1 µg/mL (≈ 2.15 µM)

Structure (SMILES): Cc1[nH]c2ccc(Cl)cc2c(=O)c1CC(=O)O
MIC (Escherichia coli [7]): 8.97 µg/mL (≈ 35.6 µM)

Structure (SMILES): COc1ccc2[nH]c(=O)c3cnn(Cc4ccccc4)c3c2c1
diameter of the inhibition zone (DIZ) (Escherichia coli [2]): 7 mm

Structure (SMILES): Cc1[nH]c2ccccc2c(=O)c1CC(=O)O
MIC (Escherichia coli [7]): 8.97 µg/mL (≈ 41.3 µM)

Structure (SMILES): O=C(O)c1cn(C2CC2)c2c(cc(F)c3nc(-c4ccccc4)[nH]c32)c1=O
MIC (Escherichia coli [8]): > 3 µg/mL

Structure (SMILES): Cn1c(=O)cc(OCc2nn(CN3CCN(c4ccc(F)cc4)CC3)c(=S)s2)c2ccccc21
MIC (Escherichia coli [6]): 25 µg/mL (≈ 50.2 µM)

Structure (SMILES): CNC1CN(c2c(F)cc3c(=O)c(C(=O)O)cn(-c4cc(N)c(F)cc4CO)c3c2Cl)C1
MIC (Escherichia coli [9]): 0.008 µg/mL (≈ 0.0172 µM)
MIC (Escherichia coli [10]): 0.008 µg/mL (≈ 0.0172 µM)
MIC (Escherichia coli [11]): 2 µg/mL (≈ 4.3 µM)
MIC (Escherichia coli [12]): 2 µg/mL (≈ 4.3 µM)

Structure (SMILES): COc1ccc(N2CCN(Cn3nc(COc4cc(=O)n(C)c5ccccc45)sc3=S)CC2)cc1
MIC (Escherichia coli [6]): 25 µg/mL (≈ 49.1 µM)

Structure (SMILES): CCn1cc(C(=O)O)c(=O)c2cc(F)c(N3CCN(CN4C(=O)/C(=N/NC(N)=S)c5cc(Cl)ccc54)CC3)cc21
MIC (Escherichia coli [1]): ≤ 0.018 µg/mL

Structure (SMILES): CCOC(=O)c1c2n(c3cc(N4CCNCC4)c(F)cc3c1=O)C(C)S2 (centres undefined)
ED50 (Escherichia coli [13]): 0.78 mg/kg

Structure (SMILES): CCn1cc(C(=O)O)c(=O)c2cc(F)c(-n3cc(CO[C@H]4O[C@H](COC(C)=O)[C@H](OC(C)=O)[C@H](OC(C)=O)[C@H]4OC(C)=O)nn3)c(F)c21
MIC (Escherichia coli [3]): > 6.25 µg/mL

Structure (SMILES): O=C(O)c1cn(C2CC2)c2c(cc(F)c3nc(-c4ccncc4)[nH]c32)c1=O
MIC (Escherichia coli [8]): > 3 µg/mL

Structure (SMILES): CC(=O)NC[C@H]1CN(c2ccc(N[C@@H]3CCN(c4nc5c(cc4F)c(=O)c(C(=O)O)cn5C4CC4)C3)c(F)c2)C(=O)O1
MIC (Escherichia coli [4]): ≥ 0.5 µg/mL

Structure (SMILES): Nc1cc(-n2cc(C(=O)O)c(=O)c3cc(F)c(N4CC(O)C4)c(Cl)c32)c(CO)cc1F
MIC (Escherichia coli [9]): 0.008 µg/mL (≈ 0.0177 µM)
MIC (Escherichia coli [10]): 0.008 µg/mL (≈ 0.0177 µM)
MIC (Escherichia coli [11]): 1 µg/mL (≈ 2.21 µM)
MIC (Escherichia coli [12]): 1 µg/mL (≈ 2.21 µM)
